Laboratory results taken from patent publication EP0078757A1, “Imines of 2-(4-phenyl-piperazinylethyl) anilines, process for their preparation and their use in medicine” (CORTIAL S.A., priority 1981, dated 1983).
Read-outs that look alike come from different tables or passages of the source.

Key:
[1] = test system: anaphylaxie passive cutanée; experiment: Passive cutaneous anaphylaxis test in rats; format: in vivo, rats mâles Sprague Dawley; details: for ED50: read-out: DE 50 voie po
Protocol: L'activité antiallergique a été déterminée dans le test de l'anaphylaxie passive cutanée de la façon suivante. On administre à des rats mâles Sprague Dawley par voie intradermique 0,1 ml de sérum riche en IgE. Ce sérum a été fabriqué en sensibilisant des rats Sprague-Dawley par une injection ip d'ovalbumine et de suspension de Bordetella pertusis suivie 20 j après par une nouvelle injection d'ovalbumine. 24 heures après administration du sérum on injecte par voie iv 0,5 ml d'une solution contenant 8,25 mg/kg d'ovalbumine et 26,4 mg/kg de bleu d'Evans dans un tampon pH 7,05. Au bout de 30 mn les animaux sont sacrifiés; chaque papule est découpée, pesée et mise à incuber pendant 4 j à 37°C dans 15 g de formamide. La quantité de bleu d'Evans contenue dans chaque papule est déterminée par la mesure de la densité optique du mélange. Le produit à tester est administré par voie orale ou intrapéritonéale en suspension homogène en présence de tween 80, 10 mn avant l'injection déclenchante. Son activité est appréciée par le pourcentage de diminution de la quantité de bleu d'Evans ayant diffusé dans la papule. Les DE 50 de certains produits de la présente invention sont indiquées dans le tableau V.

motilité chez la souris = experiment: Motility (actimeter) in mice, sedative effect; format: in vivo; details: ip route, mouse, Litchfield Wilcoxon method
Excerpt: L'effet des substances sur la motilité est appréciée chez la souris en utilisant un actimètre. Les animaux sont placés dans la cage d'activométrie et à partir du nombre de déplacements enregistrés par l'appareil,on obtient pour chaque dose considérée le pourcentage de l'effet observé par rapport au lot témoin. Ces pourcentages sont reportés sur un papier à l'échelle log-probit et la méthode de Litchfield Wilcoxon permet de calculer la dose efficace 50 sédative. Le tableau VI donne les DE 50 sédatives pour un certain nombre de produits faisant l'objet de l'invention.

souris Swiss = experiment: Oral (intragastric) toxicity, mortality in mice; format: in vivo; details: mouse, solvent as in the source
Excerpt: La mortalité induite par ces substances a été déterminée chez la souris Swiss exempte d'organismes pathogènes spécifiques. Les animaux sont stabulés en salle climatisée 24 à 48 heures avant le début de l'expérimentation. Les substances sont administrées soit par voie intragastrique en solution dans de l'huile d'olive ou du tween, soit par voie intrapéritonéale en solution dans du tween. Les résultats sont exprimés dans les tableaux I et II par le pourcentage de mortalité en fonction de la dose administrée ou par la dose induisant 50 % de mortalité (DL 50) déterminée par la méthode de Bliss.

[2] = oral route, rat, given 10 min before challenge, decrease of Evans blue in the papule, limits in brackets

CN(C)CCCN1c2ccccc2Sc2ccc(Cl)cc21 [Chlorpromazine, reference compound] showed an ED50 ([1]; Rattus norvegicus, po) of 4.9 mg/kg.
In the case of CC(CN1c2ccccc2Sc2ccccc21)N(C)C (stereo not shown) [Prométhazine, reference compound], the ED50 [1, 2] is reported as 2.9 mg/kg.
For “(phényl-4pipérazinyléthyl)-2 N-pyridylidène-3 aniline [COR 3412]”, the “DE 50 voie ip” value ([1]; intraperitoneal route, rat, given 10 min before challenge, decrease of Evans blue in the papule, limits in brackets) was 7,52 (3,31 - 17,38) mg/kg, the “DE 50 voie po” value [1, 2] was 11,9 (7,9 - 18,2) mg/kg and the “DE 50 sédation” value (motilité chez la souris) was 4 mg/kg.
For “(((trifluorométhyl-3 phényl)-4 pipérazinyl)-2 éthyl)-6 N-pyridylidène-3 benzodioxol-1,3 yl-5 amine [COR 3415]”, the “% de mortalité en fonction de la dose exprimée en mg/kg” value (souris Swiss; dose 500 mg/kg) was 0%, the “% de mortalité en fonction de la dose exprimée en mg/kg” value (souris Swiss; dose 750 mg/kg) was 50% and the “% de mortalité en fonction de la dose exprimée en mg/kg” value (souris Swiss; dose 1000 mg/kg) was 60%. The “% de mortalité en fonction de la dose exprimée en mg/kg” value (souris Swiss; dose 2000 mg/kg) was 70% and the “DE 50 voie po” value [1, 2] was 20 mg/kg.
